In patent US20130317055A1, “NEURONAL NICOTINIC AGONIST AND METHODS OF USE” (ABBVIE INC., priority 2012, published 2013):

System: clinically stable subjects with schizophrenia
Assay: Clinical Study A (Phase 2a, placebo-controlled): MATRICS Consensus Cognitive Battery (MCCB)
Format: in vivo, human
Text: A Phase 2a proof-of-concept (POC) study in clinically stable subjects with schizophrenia who were clinically stable and received stable doses of atypical antipsychotic therapy. The study was a Phase 2, multi-center, randomized, double-blind, placebo-controlled, parallel group study designed to evaluate the safety and efficacy of doses of (4s)-4-(5-phenyl-1,3,4-thiadiazol-2-yloxy)-1-azatricyclo[3.3.1.1^3,7]decane (Compound A) in clinically stable male and female subjects (ages 20 to 55, inclusive) with a Diagnostic and Statistical Manual of Mental Disorders Fourth Edition, Text Revision (DSM-IV-TR) diagnosis of schizophrenia. Psychiatric diagnoses were confirmed using the Mini-International Neuropsychiatric Interview (MINI) version 6.0.0. The criteria for clinical stability was determined by a combination of retrospective data (over the 4 months prior to the start of Screening, which will be supported by clinical records, patient, identified responsible contact person, and physician interviews), and prospective data assessed during the Prospective Stabilization Period of 28 to 42 days duration.
The study was a Phase 2, multi-center, randomized, double-blind, placebo-controlled, parallel group study designed to evaluate the safety and efficacy of doses of (4s)-4-(5-phenyl-1,3,4-thiadiazol-2-yloxy)-1-azatrieyclo[3.3.1.1^3,7]decane, which is also recognized as Compound A, in treating cognitive deficits in subjects with schizophrenia who were clinically stable and receiving one or two atypical antipsychotic medications. Study drug was administered orally.
The study consisted of a screening period of at least 28 and up to 42 days, a 84-day outpatient treatment period, a 14-day post-treatment period, and a post-treatment follow-up period. The screening period consisted of three visits: Screening Visit 1, Screening Visit 2, and Day −1. Upon completion of Day −1 procedures, eligible subjects were randomized through an Interactive Voice Response/Interactive Web-Based (IVR/IWB) system. Subjects were randomized in an equal ratio to one of three treatment groups (placebo, 10 mg Compound A, or 25 mg Compound A).
Subjects were randomized in a 1:1:1 ratio with placebo, 10 mg QD Compound A, of 25 mg Compound A. Each subject was instructed to take study drug once-daily in the morning for 12 weeks. Each daily dose was preferably taken with food. The subject and investigator were blinded to the treatment assignment throughout the study. The treatment assignments for the study subjects are shown below in Table 1.
The primary endpoint was the MCCB composite score, and the primary endpoint analysis was the change on the MCCB composite score from baseline to endpoint versus placebo. Other secondary measures included the MCCB domains, the NSA-16, the CANTAB cognition battery (measured at different time points from the MCCB), and the UPSA-2. The Positive and Negative Syndrome Scale (PANSS) was included to document stability in schizophrenia symptomatology.
The MCCB was developed by a consortium of academic, industry, the Food and Drug Administration (FDA) and National Institute of Mental Health ([…]) members called Measurement and Treatment Research to Improve Cognition in Schizophrenia (MATRICS). The battery was established in a multiple phase process that involved experts identifying cognitive tests in the literature that had shown deficits in schizophrenia, use of factor analysis to identify key domains of cognitive deficits in schizophrenia, and then empirically identifying the best tests for each domain based on reliability, validity and feasibility for use in clinical trials. The FDA has endorsed the MCCB as an appropriate outcome measure for Phase 3 CDS trials. […]

[1] = 25 mg QD, Change to Week 2, ITT
[2] = 25 mg QD, Change to Week 6, ITT
[3] = 25 mg QD, Change to Week 12, ITT

c1ccc(-c2nnc(O[C@@H]3C4CC5C[C@H]3C[N@](C5)C4)s2)cc1 [Compound A, (4s)-4-(5-phenyl-1,3,4-thiadiazol-2-yloxy)-1-azatricyclo[3.3.1.1^3,7]decane]
MCCB Reasoning and Problem Solving: LS Mean (SE) of Change from Baseline [1]: 1.95 (0.92) T-score | MCCB Reasoning and Problem Solving: Observed Mean (SD) of change from baseline [1]: 2.00 (6.25) T-score | MCCB Attention/Vigilance: Difference from Placebo LS Mean (SE) of Difference [2]: 1.71 (1.41) T-score | MCCB Attention/Vigilance: LS Mean (SE) of Change from Baseline [2]: 0.91 (1.06) T-score | MCCB Attention/Vigilance: Observed Mean (SD) of change from baseline [2]: 1.09 (9.04) T-score | MCCB Reasoning and Problem Solving: Difference from Placebo LS Mean (SE) of Difference [2]: 2.22 (1.08) T-score | MCCB Reasoning and Problem Solving: LS Mean (SE) of Change from Baseline [2]: 2.18 (0.81) T-score | MCCB Reasoning and Problem Solving: Observed Mean (SD) of change from baseline [2]: 2.11 (7.06) T-score | MCCB Social Cognition: Difference from Placebo LS Mean (SE) of Difference [2]: −1.21 (1.40) T-score | MCCB Social Cognition: LS Mean (SE) of Change from Baseline [2]: 0.30 (1.05) T-score | MCCB Social Cognition: Observed Mean (SD) of change from baseline [2]: 0.06 (8.00) T-score | MCCB Speed of Processing: Difference from Placebo LS Mean (SE) of Difference [2]: 1.84 (1.08) T-score | MCCB Speed of Processing: LS Mean (SE) of Change from Baseline [2]: 2.24 (0.80) T-score | MCCB Speed of Processing: Observed Mean (SD) of change from baseline [2]: 2.56 (5.36) T-score | MCCB Verbal Learning: Difference from Placebo LS Mean (SE) of Difference [2]: 0.49 (1.18) T-score | MCCB Verbal Learning: LS Mean (SE) of Change from Baseline [2]: 0.56 (0.88) T-score | MCCB Verbal Learning: Observed Mean (SD) of change from baseline [2]: 0.41 (9.24) T-score | MCCB Visual Learning: Difference from Placebo LS Mean (SE) of Difference [2]: −1.00 (1.65) T-score | MCCB Visual Learning: LS Mean (SE) of Change from Baseline [2]: −1.15 (1.22) T-score | MCCB Visual Learning: Observed Mean (SD) of change from baseline [2]: −1.06 (9.04) T-score | MCCB Working Memory: Difference from Placebo LS Mean (SE) of Difference [2]: 2.39 (1.08) T-score | MCCB Working Memory: LS Mean (SE) of Change from Baseline [2]: 1.88 (0.81) T-score | MCCB Working Memory: Observed Mean (SD) of change from baseline [2]: 1.69 (7.43) T-score | MCCB Attention/Vigilance: Difference from Placebo LS Mean (SE) of Difference [3]: 2.85 (1.57) T-score | MCCB Attention/Vigilance: LS Mean (SE) of Change from Baseline [3]: 0.86 (1.16) T-score | MCCB Attention/Vigilance: Observed Mean (SD) of change from baseline [3]: 0.88 (9.09) T-score | MCCB Social Cognition: Difference from Placebo LS Mean (SE) of Difference [3]: −0.40 (1.61) T-score | MCCB Social Cognition: LS Mean (SE) of Change from Baseline [3]: 0.19 (1.19) T-score | MCCB Social Cognition: Observed Mean (SD) of change from baseline [3]: −0.14 (10.81) T-score | MCCB Speed of Processing: Difference from Placebo LS Mean (SE) of Difference [3]: 0.37 (1.26) T-score | MCCB Speed of Processing: LS Mean (SE) of Change from Baseline [3]: 1.66 (0.93) T-score | MCCB Speed of Processing: Observed Mean (SD) of change from baseline [3]: 1.73 (7.28) T-score | MCCB Verbal Learning: Difference from Placebo LS Mean (SE) of Difference [3]: 1.80 (1.17) T-score | MCCB Verbal Learning: LS Mean (SE) of Change from Baseline [3]: 2.27 (0.87) T-score | MCCB Verbal Learning: Observed Mean (SD) of change from baseline [3]: 2.24 (8.03) T-score | MCCB Visual Learning: Difference from Placebo LS Mean (SE) of Difference [3]: 1.27 (1.68) T-score | MCCB Visual Learning: LS Mean (SE) of Change from Baseline [3]: 0.83 (1.23) T-score | MCCB Visual Learning: Observed Mean (SD) of change from baseline [3]: 1.24 (8.49) T-score | MCCB Working Memory: Difference from Placebo LS Mean (SE) of Difference [3]: 2.03 (1.25) T-score | MCCB Working Memory: LS Mean (SE) of Change from Baseline [3]: 2.14 (0.93) T-score | MCCB Working Memory: Observed Mean (SD) of change from baseline [3]: 1.98 (6.84) T-score | MCCB composite score: LS mean change from baseline (25 mg, baseline to Week 6, MNIRIVI analysis, placebo LS mean +0.49): +1.27 | MCCB domains with LS mean difference versus placebo greater in both dose groups (Week 6, 10 mg and 25 mg): 5 of the 7 MCCB domains | MCCB composite score: statistical significance of difference from placebo (each dose group (10 mg, 25 mg), Week 6): did not reach the level of statistical significance | Effect on cognition (patients with schizophrenia, summary statement): precognitive effects
